# Data reported in PMC11157767 (Molecular Cancer, 2024).
# Tested on: TFG-MET allograft tumors
# Assay: RNA-sequencing, differential expression and GSEA of TFG-MET allograft tumors
# Assay type: in vivo, mouse
# Conditions: GSEA CAP vs Veh, C5 GO CC
# Experimental: Error bars display standard error of mean, statistical significance was determined using t-test analysis. (****;p<0.0001, ***;p<0.001, **;p<0.01, *;p<0.05). […] Each dot represents an individual replicate. Error bars display standard error of the mean.
# Each dot represents one gene.
compound,measurement,setting,value
CNC(=O)c1ccc(-c2cnc3ncc(Cc4ccc5ncccc5c4)n3n2)cc1F [Capmatinib],NES GOCC_U12_TYPE_SPLICEOSOMAL_COMPLEX,padj 0.00985351,-1.841
same,NES GOCC_ENDOCYTIC_VESICLE_MEMBRANE,padj 0.00993117,1.48
same,NES GOCC_MAIN_AXON,padj 0.0105942,1.71
same,NES GOCC_CILIARY_TIP,padj 0.0106966,1.78
same,NES GOCC_CILIARY_BASAL_BODY,padj 0.0123456,1.449
same,NES GOCC_RNA_POLYMERASE_III_COMPLEX,padj 0.0128749,-1.798
same,NES GOCC_CATION_CHANNEL_COMPLEX,padj 0.0130428,1.45
same,NES GOCC_PROTON_TRANSPORTING_TWO_SECTOR_ATPASE_COMPLEX_CATALYTIC_DOMAIN,padj 0.0138609,1.892
same,NES GOCC_SPECIFIC_GRANULE_MEMBRANE,padj 0.0141171,1.543
same,NES GOCC_SWI_SNF_SUPERFAMILY_TYPE_COMPLEX,padj 0.0141171,-1.631
same,NES GOCC_U1_SNRNP,padj 0.015809,-1.765
same,NES GOCC_MICROBODY,padj 0.0162979,1.4892
same,NES GOCC_CHAPERONE_COMPLEX,padj 0.0163882,-1.777
same,NES GOCC_SPINDLE,padj 0.0181265,-1.395
same,NES GOCC_AUTOPHAGOSOME_MEMBRANE,padj 0.0181579,1.734
same,NES GOCC_DNA_POLYMERASE_COMPLEX,padj 0.0181579,-1.786
same,NES GOCC_P_BODY,padj 0.0181579,-1.619
same,NES GOCC_MHC_CLASS_I_PROTEIN_COMPLEX,padj 0.0188701,1.849
same,NES GOCC_AZUROPHIL_GRANULE_MEMBRANE,padj 0.0193916,1.659
same,NES GOCC_EXOCYTIC_VESICLE,padj 0.0193916,1.3878
same,NES GOCC_EXON_EXON_JUNCTION_COMPLEX,padj 0.0194501,-1.776
same,NES GOCC_SPLICEOSOMAL_TRI_SNRNP_COMPLEX,padj 0.0201459,-1.73
same,NES GOCC_PLASMA_MEMBRANE_PROTEIN_COMPLEX,padj 0.0211865,1.208
same,NES GOCC_SPINDLE_POLE,padj 0.0236958,-1.485
same,NES GOCC_CYTOPLASMIC_REGION,padj 0.0239917,1.358
same,NES GOCC_RIBOSOME,padj 0.0240328,-1.42
same,NES GOCC_RNA_POLYMERASE_II_HOLOENZYME,padj 0.0260741,-1.585
same,NES GOCC_PROTEIN_LIPID_COMPLEX,padj 0.030494,1.7122
same,NES GOCC_CENTROSOME,padj 0.0306446,-1.299
same,NES GOCC_PROTEASOME_CORE_COMPLEX,padj 0.0307775,1.722
same,NES GOCC_PROTON_TRANSPORTING_V_TYPE_ATPASE_COMPLEX,padj 0.0307775,1.755
same,NES GOCC_SNARE_COMPLEX,padj 0.0312218,1.596
same,NES GOCC_BLOC_COMPLEX,padj 0.0315137,1.832
same,NES GOCC_INTRACILIARY_TRANSPORT_PARTICLE_B,padj 0.0329395,1.825
same,NES GOCC_POLYSOMAL_RIBOSOME,padj 0.0334435,-1.667
same,NES GOCC_AP_TYPE_MEMBRANE_COAT_ADAPTOR_COMPLEX,padj 0.0422332,1.673
same,NES GOCC_9PLUS0_NON_MOTILE_CILIUM,padj 0.0467153,1.3799
same,NES GOCC_PROTON_TRANSPORTING_ATP_SYNTHASE_COMPLEX,padj 0.0488031,1.779
same,NES GOCC_SEX_CHROMOSOME,padj 0.0490653,-1.646
same,NES GOCC_U2_SNRNP,padj 0.0543003,-1.648
same,NES GOCC_ENDOCYTIC_VESICLE,padj 0.0582082,1.305
same,NES GOCC_HIGH_DENSITY_LIPOPROTEIN_PARTICLE,padj 0.0591592,1.639
same,NES GOCC_REPLISOME,padj 0.0619841,-1.586
same,NES GOCC_ANCHORED_COMPONENT_OF_MEMBRANE,padj 0.0629656,1.328
same,NES GOCC_INTRINSIC_COMPONENT_OF_SYNAPTIC_VESICLE_MEMBRANE,padj 0.0629656,1.526
same,NES GOCC_MULTIVESICULAR_BODY,padj 0.063611,1.4828
same,NES GOCC_NURD_COMPLEX,padj 0.0667331,-1.604
same,NES GOCC_CYTOPLASMIC_MICROTUBULE,padj 0.0742121,1.415
same,NES GOCC_PHOTORECEPTOR_CONNECTING_CILIUM,padj 0.0825356,1.523
same,NES GOCC_REGION_OF_CYTOSOL,padj 0.0834337,-1.574
same,NES GOCC_FILOPODIUM_MEMBRANE,padj 0.0837675,-1.564
